# Measurements from US20240216410A1, “METHODS AND COMPOSITIONS FOR TREATING CANCER THERAPY-INDUCED NEUTROPENIC FEVER AND/OR GVHD” (BOARD OF REGENTS, THE UNIVERSITY OF TEXAS SYSTEM, priority 2021, published 2024).
# Experiments:
# [1] = tested on: murine BT GH2 β-galactosidase, GH33 sialidase, GH29 α-L-fucosidase; assay: RNA sequencing of stool from allo-HSCT mice: BT PUL expression; assay type: in vivo, Bacteroides thetaiotaomicron; details: day 18, allo-HSCT mice with vs without meropenem
# Description: Thus, in some cases, meropenem treatment during GVHD may lead to alterations in the behavior of BT. To evaluate this further, RNA sequencing of stool samples from allo-HSCT mice without and with meropenem treatment was performed. Also examined was the genome of mouse-derived BT isolate MDA-JAX BT001 (FIG. 23), and open reading frames (ORF) were identified, which were then assigned to polysaccharide utilization loci (PUL) using the Polysaccharide-Utilization Loci DataBase (PULDB) (41).
# RNA sequencing and analysis. Approximately 30 mg of stool was freshly collected in 700 μL of ice cold QIAZOL® containing 200 μL of 0.1 mm diameter Zirconia Silica beads (11079101z, BioSpec). Samples were bead beaten twice for 2 min with a 30 second interval recovery. Samples were then centrifuged at 12,000 g for 1 min and the supernatant was collected for RNA isolation using the RNeasy mini kit (74104, QIAGEN®). […] RNA quantity and quality was determined using an Agilent 4200 TapeStation system (Agilent). […] The cDNA libraries were sequenced on the […]® MISEQ™ system to produce 1×300 bp single-end reads, resulting in ˜1 million reads per sample. […] The total reads of mouse stool samples were 950923±113406 (mean±standard deviation). […] Aligned mRNA expression changes were calculated using the Mann-Whitney U test in R software version 3.6.0 via RStudio version 1.2.1335. […]
# [2] = assay type: in vivo, mice
# Description: The mucus layer provides a critical contribution to the intestinal barrier by excluding bacteria from the intestinal lumen adjacent to the intestinal epithelium. […] Translocating bacteria included Enterococcus faecalis, Enterococcus gallinarum, Lactobacillus johnsonii, and BT (FIGS. 17D-17E).
# Immunostaining and fluorescence in situ hybridization. […] Paraffin-embedded sections were dewaxed and hydrated. Sections were incubated with 1 μg Alexa Fluor 594-conjugated EUB338 (5′-[…]-3′; SEQ ID NO:1) for detection of all bacteria in 200 μL of hybridization buffer (750 mM NaCl, 100 mM Tris-HCl (pH 7.4), 5 mM EDTA, 0.01% BSA, 10% dextran sulfate) at 40° C. for 16 hours. Sections were rinsed in wash buffer (50 mM NaCl, 4 mM Tris-HCl (pH 7.4), 0.02 mM EDTA), washed at 45° ° C. for 20 min, stained with anti-Muc2 antibody [C3] (GTX100664, GeneTex) and counterstained with DAPI (Vector Laboratories). Photographs of sections were obtained using a fluorescent microscope (Nikon NIS Elements, Advanced Research version 4.20).
# Microbiologic analysis of bacterial translocation. Mesenteric lymph nodes (MLNs) were harvested from mice and homogenized in PBS and cultured anaerobically on BHI plates containing yeast extract and 5% sterilized rumen fluid (THERMO FISHER […]™)) and Columbia blood agar plates (BD) for 4 days at 37° ° C. Colony-forming units (CFUs) were counted and adjusted per organ. […]
# [3] = human, in vivo
# Description: In this study, data from 295 patients with acute myeloid leukemia (AML) or myelodysplastic syndrome (MDS) who underwent allo-HSCT with tacrolimus and methotrexate as GVHD prophylaxis following conditioning therapy with fludarabine and 5 busulfan from 2011 to 2016 were retrospectively examined. The incidence of acute intestinal GVHD until day 100 after transplant was evaluated and compared were patients who received neither cefepime nor meropenem, those who received cefepime alone, those who received meropenem alone, and those who received both cefepime and meropenem during the period from days −10 to 30 relative to allo-HSCT infusion.
# Retrospective study design. 295 patients with acute myeloid leukemia (AML) or myelodysplastic syndrome (MDS) underwent allogeneic hematopoietic stem cell transplantation (allo-HSCT) with fludarabine plus busulfan as conditioning therapy and tacrolimus and methotrexate as GVHD prophylaxis from 2011 and 2016 and were analyzed retrospectively. Patients were classified by antibiotic exposures, including those who received neither cefepime nor meropenem, those who received cefepime alone, those who received meropenem alone and those who received both cefepime and meropenem from day −10 to day 30 after allo-HSCT. Acute GVHD was diagnosed by clinical and/or pathological findings, and graded according to standard criteria (56).
# [4] = Meropenem concentration in stool of mice given meropenem in drinking water; assay type: in vivo; details: mouse, oral; 0.625 g/L in drinking water; normal SPF mice; stool 48 hours after starting; median±SE; read-out: meropenem concentration in fecal samples
# Description: To further explore a potential causal relationship between meropenem and intestinal GVHD, the effects of meropenem on GVHD in a mouse model of allo-HSCT were examined. A method of administering meropenem to mice was first developed that would better mimic the effects of meropenem on the intestinal microbiome of patients, which is typically given every 8 hours intravenously. Previously, antibiotics were administered subcutaneously to mice (25), and meropenem concentrations were quantified in the cecal lumen of mice 4, 8, 24, 48 and 96 hours after subcutaneous injection. […] Next, drinking water was evaluated as a means of continuously administering meropenem to mice, using bacterial density quantified by 16S ribosomal RNA (16S rRNA) gene quantitative PCR (qPCR) to gauge reductions of the intestinal microbiota.
# Murine isolates of Enterococcus faecalis (MDA-JAX EF001), Clostridium disporicum (MDA-JAX CD001), Clostridium saudiense (MDA-JAX CS001), and Lachnospiraceae unclassified (MDA-JAX LS001) were also tested.
# Antibiotics administration.
structure (smiles),measurement,setting,value
C[C@@H](O)[C@H]1C(=O)N2C(C(=O)O)=C(S[C@@H]3CN[C@H](C(=O)N(C)C)C3)[C@H](C)[C@H]12 [meropenem],"expression in murine BT of GH2 β-galactosidase, GH33 sialidase and GH29 α-L-fucosidase",[1],upregulated expression
same,bacterial loads cultivated from MLNs,[2]; day 18,higher bacterial loads
same,bacteria in mucus layer and lamina propria (16S FISH),[2]; mice with GVHD,dissemination of bacteria into the mucus layer and lamina propria of the colon
same,survival after allo-HSCT,meropenem in drinking water days 3 to 15 vs control allo-HSCT mice,significantly worsened survival
same,GVHD histological scores in the colon,"mouse, in vivo",significantly higher
same,GVHD histology in the small intestine and liver,"mouse, in vivo",not substantially different
same,epithelial damage in the colon (H&E),"mouse, in vivo",severe epithelial damage in the colon
same,"Acute GVHD Grade 0, number of patients",[3],13
same,"Acute GVHD Grade 0, percentage of patients",[3],(41%)
same,"Acute GVHD Grade I, number of patients",[3],5
same,"Acute GVHD Grade I, percentage of patients",[3],(16%)
same,"Acute GVHD Grade II, number of patients",[3],10
same,"Acute GVHD Grade II, percentage of patients",[3],(31%)
same,incidence of acute intestinal GVHD,[3],significantly higher
same,"Acute GVHD Grade III-IV, number of patients",[3]; iv,4
same,"Acute GVHD Grade III-IV, percentage of patients",[3]; iv,(13%)
same,concentration at 48 h,[4],110 ± 70 ng/g
